Test results reported in patent publication US20040009904A1, “APL immunoreactive peptides, conjugates thereof and methods of treatment for aPL antibody-mediated pathologies” (priority 1995, published 2004).
Ends that are not written are not given here. ATU = not defined here

What was measured:
ACA-6501 = assay: Competitive binding peptide ACA ELISA, cardiolipin/β2-GPI-coated plates; set-up: species or system human; details: Optimization of Peptide 3G3; inf = no 50% inhibition
Experimental: A variation of this assay uses microtitration plates coated with human β2-glycoprotein I/cardiolipin (β2-GPI/CL) instead of tetravalent peptide and tests the ability of monomeric peptides to block the binding of aPL antibody to the epitope(s) on β2-GPI/CL. In this assay, IgG-depleted human serum at an optimized concentration is used as a source of β2-GPI. The monomeric peptides at several concentrations are incubated with an optimized concentration of aPL antibody in a manner analogous to the assay which employs tetravalent peptide as a plate substrate. Following the incubation of aPL/peptide in (β2-GPI/CL) plates, antibody binding and the peptide concentration required for 50% inhibition is determined at half-maximal absorbance as in the tetravalent assay.
Peptide sequences for all five peptides immediately follow the table. All were tested using the competitive binding peptide ACA ELISA using CL/β2-GPI plates as described herein.
(B) Immulon I® 96-well, flat-bottom, polystyrene microtitration plates (Dynatech Laboratories, Inc., Chantilly, Va.) were coated with 30 μL/well of cardiolipin (CL, 50 μg; Sigma Chemical Co., St. Louis, Mo.) in ethanol. Two control wells received 30 μL ethanol only. After overnight evaporation at 4° C., each well was blocked with 200 μL of 5% (w/v) fish gelatin in PBS for 2 hours at RT.
During this incubation, variable amounts of each of six peptides were mixed with 22 μL ACA-6501 serum diluted with 3% fish gelatin in 1:1 TBS/PBS (final dilution of 1:400) in a final volume of 220 μL using Eppendorf microcentrifuge tubes. Specifically, in tube #1 were mixed 181.3 μL of 3% fish gelatin in TBS-PBS, 16.7 μL of peptide stock solution plus 22 μL of ACA-6501 serum diluted 40 times in 3% fish gelatin/TBS-PBS. Stock solutions ranged from 450-800 μg/mL for peptides #951 (diserine non-cyclized negative control), #952 (a lot of LJP 690), and thioethers CCTE-3G3, CHTE-3G3, HCTE-3G3 and HHTE-3G3. To tube #2 the following were added: 148 μL fish gelatin/TBS-PBS, […] of peptide stock solution, plus 22 μL of 40 times diluted ACA-6501 serum. Tube #3 contained 48 μL fish gelatin/TBS-PBS, […] of peptide stock solution, plus 22 μL of 40 times diluted ACA-6501 serum. The control tube #4 received 396 μL fish gelatin/TBS-PBS and 44 μL of 40 times diluted ACA-6501 serum (no peptide). Each of the tubes incubated for approximately 1 hour at RT.
The CL/β2-GPI microtitration plate was washed 5 times with TBS and 100 μL aliquots in duplicate from Eppendorf tubes #1, 2, 3, and 4 containing the antibody-peptide (or no peptide mixtures) were added to the wells. A volume of 100 μL from tube #4 was added to the duplicate control wells containing no cardiolipin. The microtitration plate was incubated for 1 hour at RT with agitation at 40 rpm in an orbital shaker (American Scientific, Rotator V), washed 5 times with TBS and then 100 μL of 1:1000 goat anti-human IgG alkaline phosphatase conjugate (Zymed, Cat No. 62-8422) in 0.5% (w/v) BSA-TBS was added. Following incubation for 1 hour at RT, the microtitration plate was again washed 5 times with TBS and the colorimetric enzyme detection developed by adding 100 μL of PMPP solution (7.8 g phenolphthalein monophosphate plus 69.5 g of 2-amino-2-methyl-1-propanol in 100 mL water stock solution diluted 1:26 with water). After 21 minutes, the reaction was stopped by adding 50 μL of 0.2 M Na2HPO4 (Mallinckrodt) to each well. Absorbance at 550 nm was read in a microplate reader (Bio-Tek Instruments, Model EL 311). The amount of peptide that inhibited ACA-6501 binding by 50%, the IC50, was calculated from the graph at the intersection of half-maximal absorbance with amount of peptide added.

ACA = assay: Structure Activity Relationship of the Crossreactive ACA Epitope (relative activity); type: binding, human; details: LJP 688 = 100
Text: Peptide 6641/3G3 (LJP 688) was subjected to a number of analyses. The analyses included truncation at both the N-terminus and the C-terminus, disulfide substitution, substitution of alanine and glycine for amino acids in positions 2 through 8, substitution of branched aliphatic amino acids in positions 2, 4, 5 and 8, substitution of amino acids affecting conformation of the peptide, including substitution of α-methyl amino acids, substitution of basic amino acids in position 7, substitution of D-amino acids in positions 2 through 9, and the substitution of N-α-methyl amino acids in positions 1 through 9.

In the case of “C L G V L G K L C ATU-Y (CLGVLGKLC; C-terminal ATU-Y extension)”, the “with ACA 6501 150 ug/mL” value (ACA-6501) was 300 µg/mL.

In the case of C L G V aiB G K L C, the “with ACA 6501 150 ug/mL” value (ACA-6501) was “inf”.

In the case of CLGGLGKLC [C L G G L G K L C], the “with ACA 6501 150 ug/mL” value (ACA-6501) was “inf”.

For CLGVAGKLC [C L G V A G K L C], the “Relative Activity” value (ACA) was “∞” and the “with ACA 6501 150 ug/mL” value (ACA-6501) was “inf”.

In the case of CLGVGGKLC [C L G V G G K L C], the “with ACA 6501 150 ug/mL” value (ACA-6501) was “inf”.

CLGVLCKLC [C L G V L C K L C] was tested, and the “with ACA 6501 150 ug/mL” value (ACA-6501) was 500 µg/mL.

CLGVLGALC [C L G V L G A L C] was tested, and the “Relative Activity” value (ACA) was “∞” and the “with ACA 6501 150 ug/mL” value (ACA-6501) was “inf”.

In the case of CLGVLGGLC [C L G V L G G L C], the “with ACA 6501 150 ug/mL” value (ACA-6501) was “inf”.

For CLGVLPGKLC, the “Relative Activity” value (ACA) was 1.4.

For CLGVPGKLC [C L G V P G K L C], the “with ACA 6501 150 ug/mL” value (ACA-6501) was “Inf”.

In the case of “SLGVLGKLS [diserine non-cyclized negative control, reference compound]”, the “Relative Activity” value (ACA) was “∞”.

For “Y ATU C L G V L G K L C ({Tyr-ATU}-CLGVLGKLC; cysteine pairing not given here; reading uncertain)”, the “with ACA 6501 150 ug/mL” value (ACA-6501) was 170 µg/mL.
